The nature of experiment [1]: Affinity of paramagnetic complex towards substrate by PRE method. The class given is binding. The text has this:
(§1) Since the relaxivity of the two paramagnetic species involved in the equilibrium, that bound to the substrate molecule and that unbound, are different, the well-established Proton Relaxation Enhancement (PRE) method (Aime S, Fasano M, Terreno E, Botta M in The Chemistry of Contrast Agents in Medical Magnetic Resonance Imaging, Merbach A E, Tóth E (eds), Wiley & Sons: Chichester, 2001, 203-209) may be conveniently used for estimating the affinity of the paramagnetic complex towards the substrate molecule.
(§2) The KA values obtained for the adducts disclosed in the following are measured according to this PRE method.

Experiment [2] can be described thus: Affinity of paramagnetic complex towards substrate by Proton Relaxation Enhancement (PRE) method. As to conditions: Lactate; pH 7 and 25° C. The class given is binding.
Source text: as §1, §2
By adding lactate to an aqueous solution of GdDO3A the following equilibrium takes place: GdDO3A(H2O)2+Lactate ? GdDO3A(Lactate)+2H2O
Since the relaxivity of the two Gd(III) species involved in the equilibrium are different (higher for GdDO3A(H2O)2), the well-consolidated Proton Relaxation Enhancement (PRE) method (Aime S, Fasano M, Terreno E, Botta M in The Chemistry of Contrast Agents in Medical Magnetic Resonance Imaging, Merbach A E, Tóth E (eds), Wiley & Sons: Chichester, 2001, 203-209) may be conveniently used for estimating the affinity of the GdDO3A complex towards Lactate.

Some results are limits rather than exact numbers.

In the case of “10-[(3-carboxyphenyl)methyl]-1,4,7,10-tetraazaciclododecane-1,4,7-triacetic acid gadolinium complex [Gd-3]”, the KA in experiment [1] (aspartate, 298 K and pH 7) is 120 M⁻¹; in experiment [1] (oxalate, 298K and pH 7), more than 50000 M⁻¹.

With `O=C([O-])CN1CCNCCN(CC(=O)[O-])CCN(CC(=O)[O-])CC1.[Gd+3]` [GdDO3A], the KA in experiment [1] (citrate, pH 7 and 25° C.) was 40 M⁻¹; in experiment [2], 150 M⁻¹. Also, the binding strength in experiment [1] (inorganic phosphate, pH 7.4 and 25° C.) is 50 M⁻¹.

(Values after patent US7608249B2, “Enhanced substrate imaging by reversible binding to a paramagnetic complex” (Bracco Imaging S.p.A., priority 2001, dated 2009).)
